Legend:
[1] = tested on: Arabidopsis thaliana (Col-0); assay: Measurement of amount of endogenous jasmonic acid production (LC-MS/MS); assay type: in vivo; details: 50 μM, 24 h in the light, vs DMSO negative control; FIG. 1 (*p<0.05; **p<0.01)
Method: Arabidopsis thaliana (Col-0) seeds were sown on a transparent 96-well plate, and soaked in a 1/2 MS medium (150 μL). The seeds were left for 2-3 days in a cool and dark place, and then left to grow under long-day treatment conditions for 9-10 days. Thereafter, the medium was replaced with a 1/2 MS medium (100 μL) containing each (50 μM) of compounds E1, E2, and E3, and comparative compounds C1 and C2, vacuum treatment was applied for 10 min, and the seeds were left in the light for 24 h. About 20 to 60 mg of the plantlets (about 3 individuals) and 2 beads for crushing were placed in a tube, and immediately frozen with liquid nitrogen and stored at −80° C. In addition, for a negative control, DMSO was added instead of each of compounds E1, E2, and E3, and comparative compounds C1 and C2.
The frozen sample was crushed using a bead-type homogenizer (Bead Smash 12; WakenBtech Co., Ltd.) under conditions of 3,000 rpm for 60 sec, and then 1 mL of an aqueous solution of 70% methanol plus 1% acetic acid and 10 ng of d2-JA (internal standard) were added. The mixture was mixed thoroughly by vortexing. This solution was centrifuged at 10,000 rpm for 5 min and the supernatant was collected. The same process was repeated two more times without the addition of the internal standard, and a total of 3 mL of an extract was collected.
The solutions were then applied to a Sep-Pak (registered trademark) Vac 3cc (500 mg) C18 Cartridge (Waters) in the following order of 1. to 6.
1. acetonitrile (one column volume, about 3 mL) 2. 100% methanol (one column volume) 3. distilled water (one column volume) 4. aqueous solution of 70% methanol+1% acetic acid (two column volumes) 5. sample supernatant (total amount) 6. aqueous solution of 70% methanol+1% acetic acid (one column volume) […]
Then, the amount of endogenous jasmonic acid (JA) production was determined by LC-MS/MS. […]

PDF1.2 gene [2] = assay: Measurement of expression level of PDF1.2 gene (1), real-time PCR; assay type: in vivo, Arabidopsis thaliana; details: 24 h, relative expression (ΔΔCt, EF1-α reference)
Method: Arabidopsis thaliana (Col-0) seeds were sown on a transparent 96-well plate, and soaked in a 1/2 MS medium (150 μL). The seeds were left for 2-3 days in a cool and dark place, and then left to grow under long-day treatment conditions for 9-10 days. Thereafter, the medium was replaced with a 1/2 MS medium (100 μL) containing compound E1 (25 μM) or compound E2 (50 μM), vacuum treatment was applied for 10 min, and the seeds were left in the light for 24 h. About 20 to 60 mg of the plantlets (about 3 individuals) and 2 beads for crushing were placed in a tube, and immediately frozen with liquid nitrogen and stored at −80° C. In addition, for a negative control, DMSO was added instead of each of compounds E1 and E2. […] The concentration of the total RNA obtained was measured, and the total RNA was mixed with RNAse-free H2O to 1/12 μg/μL (6 μL H2O for 0.5 μg of the total RNA), and the mixture was placed in a PCR tube, incubated at 65° C. for 5 min, and then quenched on ice. […] Then, CFX Connect Real-Time PCR Detection System (Bio-Rad) was used to quantitatively determine the expression level of PDF1.2 gene. […] For quantification, the ΔΔCt method was used, and this value was expressed as the relative expression level. […]

PDF1.2 gene [3] = assay: Measurement of expression level of PDF1.2 gene (2), real-time PCR; assay type: in vivo, Arabidopsis thaliana; details: 50 μM, 48 h; FIG. 3
Method: (§1) Arabidopsis thaliana (Col-0) seeds were sown on a transparent 96-well plate, and soaked in a 1/2 MS medium (150 μL). The seeds were left for 2-3 days in a cool and dark place, and then left to grow under long-day treatment conditions for 10 days. Thereafter, the medium was replaced with a 1/2 MS medium (100 μL) containing compound E1 (50 μM), compound E4 (50 μM), or compound E5 (50 μM), and comparative compounds C1 and C2, vacuum treatment was applied for 10 min, and the seeds were left in the light for 48 h. Eight individual plantlets and 2 beads for crushing were placed in a tube, and immediately frozen with liquid nitrogen and stored at −80° C. In addition, for a negative control, DMSO was added instead of each of compounds E1, E4, and E5. Then, similarly to Test Example 2, RNA was extracted from the frozen sample, and the expression level of the PDF1.2 gene was quantitatively determined by reverse transcription real-time PCR.

PDF1.2 gene [4] = assay: Measurement of expression level of PDF1.2 gene (3), real-time PCR; assay type: in vivo, Arabidopsis thaliana; details: 50 μM, 48 h; FIG. 4
Method: as §1, with “3-7” for “2-3”, “μM),” for “μM), compound E4 (50 μM),”, “E6” for “E5”, “E1” for “E1, E4,”, “E6.” for “E5.”

MRC-5 cells = assay: Study on cytotoxicity, WST-8 method; assay type: cell-based, human; details: 50 μM, cultured 2 days, FIG. 5
Method: Normal fibroblasts MRC-5 from human fetal lung were seeded in a 96-well plate at a cell density of 5,000 cells/well, and cultured for 1 day under conditions of 37° C. and 5% CO2. After the culturing, compound E1 was added to the medium at varying concentrations, and the cells were cultured for another 2 days. Then, the number of viable cells was determined using the WST-8 method, and the viability of the MRC-5 cells was calculated. In addition, for a control, SN-38, an active metabolite of the anticancer drug irinotecan, was added instead of compound E1.

| Compound | amount of endogenous jasmonic acid production [1] | expression level of PDF1.2 gene (PDF1.2 gene [3]) | expression level of PDF1.2 gene (PDF1.2 gene [4]) | other results |
| --- | --- | --- | --- | --- |
| COc1ccc(Oc2cccc(F)c2C#N)cc1 [compound E1] | significantly increased | markedly enhanced | markedly enhanced | expression level of PDF1.2 gene (PDF1.2 gene [2]; 25 μM, FIG. 2A): markedly enhanced; viability of the MRC-5 cells (MRC-5 cells): exceeds 60% |
| N#Cc1c(Cl)cccc1Oc1ccc(-c2nnco2)cc1 [compound E2] | significantly increased | – | – | expression level of PDF1.2 gene (PDF1.2 gene [2]; 50 μM, FIG. 2B): markedly enhanced |
| COc1ccc(Oc2cccc(Br)c2C#N)cc1 [compound E5] | – | markedly enhanced | – | – |
| COc1ccc(Oc2cccc(Cl)c2C#N)cc1 [compound E4] | – | markedly enhanced | – | – |
| N#Cc1c(F)cccc1Oc1ccccc1 [compound E3] | significantly increased | – | – | – |
| CC(C)Oc1ccc(Oc2cccc(F)c2C#N)cc1 [compound E6] | – | – | markedly enhanced | – |
